Data published in article PMC11434980, “Deciphering Chemical Rules for Drug Penetration into Strongyloides” (Pharmaceutics, 2024).
Where “and” joins values, the source holds several entries; their conditions need not be identical. Equal values may be shown once. Read-outs that look alike come from different tables or passages of the source.

Columns and labels:
[1] = system: S. venezuelensis L3s; experiment: microbe, parasite or virus in culture; conditions: L3s
Procedure: (§1) Baerman-obtained S. venezuelensis L3s were rinsed twice with distilled water and counted, and 100 to 150 larvae were placed per well in 96-well flat-bottom culture plates. Larvae were incubated at 28 °C for 30 min to allow adaptation and treated with compounds in the range of 0.5–40 µM for 72 h at 28 °C in a humid atmosphere. Mortality was assessed as the lack of any movement detected during 1 min of observation under an inverted microscope (40×), at 24, 48, and 72 h after treatment. The ability to stain the larvae was pointed out when observed; at 72 h, larvae were collected and washed two times with distilled water and placed in a new well to remove the background color and photographed. Pictures were also taken at 24 and 48 h without cleaning the larvae so as not to interfere with the 72 h readout of the experiment. […] All experiments were conducted in triplicate and at least three different times. The antiparasitic activity of the compounds was expressed as the concentration that inhibited the motility of half of the larvae (immobilization concentration 50, IC50).
A total of 15 dyes were tested against S. venezuelensis L3s at a 20 µM concentration. The activity was determined by the number of larvae lacking motility relative to the total number in the well after 1 min of light excitation at 24, 48, and 72 h after treatment.

[2] = system: parasitic females of S. venezuelensis; experiment: In vitro activity against adult females (movement categories); format: cell-based, Strongyloides venezuelensis; conditions: 10 µM, 50–70 worms per well
Procedure: Seven to nine days after infection, the mice or rats were euthanized and the small intestine was removed, sliced longitudinally, minced, and placed in a sedimentation cup wrapped in 8 layers of gauze in phosphate-buffered solution (PBS) for two hours at 37 °C. Parasitic females were collected from the sediment and washed twice with saline solution (NaCl 0.15 mol/L) and twice with Roswell Park Memorial Institute 1640 (RPMI 1640) (Gibco, Whaltman, MA, USA) supplemented with 10% heat-inactivated FBS, 100 µg/mL streptomycin, and 100 U/mL penicillin (Gibco, Whaltman, MA, USA) to avoid contamination during the in vitro assays. After collection, females were placed in 96-well plates with supplemented RPMI medium and kept at 37 °C. We tested three different female population densities to explore the effects on the measured activity: 1–3 females, 10–15 females, and 50–70 females per well. At 24 h after plating, the compounds were applied at 10 µM and the anti-parasitic activity was evaluated at 1, 24, 48, and 72 h after treatment based on movement for 30 s observation periods under the microscope (40×). […] All experiments were conducted in duplicate and at least three different times. […]

[3] = system: HeLa (human cervical cancer) cell line; experiment: Cytotoxicity, MTT method; format: cell-based
Procedure: (§2) A cytotoxicity test was performed using the HeLa (human cervical cancer) cell line according to the MTT method. Cells were from the ATCC (Manassas, VA, USA). They were cultured at 37 °C in sub-confluent conditions under a 95% humidified atmosphere and 5% CO2 in Dulbecco’s Modified Eagle Medium (DMEM) (Gibco, Whaltman, MA, USA) supplemented with 10% heat-inactivated FBS, 2 mM L-glutamine, 100 U/mL penicillin, and 100 µg/mL streptomycin. […] The antiproliferative activity was measured in triplicate after 72 h using the MTT (3-(4,5-dimethylthiazol-2-yl)-2,5-diphenyltetrazolium bromide) Cell Proliferation Kit (Roche, Boston, MA, USA), following the manufacturer’s specifications. […] The selectivity index (SI = HeLa IC50/L3 IC50) for each compound was calculated to compare the antiparasitic activity with its respective human cell cytotoxicity.

[4] = system: S. venezuelensis experimental infections of mice; experiment: In vivo activity in S. venezuelensis experimental infection of mice (eggs in feces, parthenogenetic females); set-up: species or system Strongyloides venezuelensis; conditions: for reduction in the number of parthenogenetic females: day 8 p.i., compared to infection group; for parthenogenetic females recovered per mouse at day 8 p.i.: ivermectin 0.2 mg/kg oral day 5 p.i., dyes 20 mg/kg/day day 0 to 5 p.i.
Procedure: All animals were infected by subcutaneous injection with 3000 […] of S. venezuelensis resuspended in PBS. […] The eggs per gram was reported. The recovery of parasite females was performed as described above. The mean was determined for the eggs per gram (EPG) of feces and parthenogenetic female counts. The color of the feces and urine in the beds was recorded.

[5] = system: parasitic females of S. venezuelensis; set-up: method as in PMID 35914566; conditions: never achieving complete absence of movement at these concentrations; read-out: IC50 against adult females (literature); cited from earlier work
[6] = system: S. venezuelensis L3s; experiment: Staining (uptake) of L3 larvae by the dyes; format: cell-based, Strongyloides venezuelensis; conditions: for lowest staining concentration (Conc): 72 h
Procedure: as §1

[7] = system: parasitic females of S. venezuelensis; experiment: Staining of adult females by the dyes; format: cell-based, Strongyloides venezuelensis; conditions: 10 µM
[8] = Cytotoxicity, MTT method; format: cell-based, human; conditions: human; HeLa cells, 72 h, MTT; read-out: HeLa IC50 (antiproliferative activity / cytotoxicity)
Procedure: as §2

[9] = system: parasitic females of S. venezuelensis; experiment: In vitro activity against adult females (movement categories); format: cell-based, Strongyloides venezuelensis; conditions: 72 h
[10] = read-out: IC50 72 h (immobilization concentration 50 of cultured L3s), 72 h

Compound | Screening 20 µM 72 h ([1]; 72 h) | IC50 [1, 10] [µM] | effect on adult females [2] | Activity against parasitic females 1 h [2] | Activity against parasitic females 24 h [2] | Activity against parasitic females 48 h [2] | Activity against parasitic females 72 h [2] | reduction in the number of parthenogenetic females [4] [%] | parthenogenetic females recovered per mouse at day 8 p.i. [4] | Staining 72 h (L3 staining ability) [6] | lowest staining concentration (Conc) [6] [µM] | Staining of parasitic females [7] | staining of adult females [7] | IC50 at 72 h [8] [µM] | other results
Ivermectin | Active | 1.5 ± 0.3 | noticeable spasmodic movement | Affected | Affected | Slightly affected | Slightly affected | 91.5 | 29 ± 12.3 and 29 | – | – | – | – | – | IC50 ([1]; read-out: IC50 24 h (immobilization concentration 50 of cultured L3s), 24 h): 2.1 ± 0.1 µM; IC50 ([1]; read-out: IC50 48 h (immobilization concentration 50 of cultured L3s), 48 h): 1.6 ± 0.3 µM; IC50 ([3]; HeLa cells, 72 h, MTT, read-out: HeLa IC50 (antiproliferative activity / cytotoxicity)): 5.9 µM; Eggs in feces at peak, day 5 p.i. ([4]; ivermectin (Noromectin) single oral dose 0.2 mg/kg on day 5 p.i.): 20,534 ± 15,961 eggs per gram; IC50 [5]: > 229 µM
CN(C)c1ccc(C(=C2C=CC(=[N+](C)C)C=C2)c2ccc(N(C)C)cc2)cc1 [Crystal Violet] | Active | – | – | Healthy | Healthy | Slightly affected | Slightly affected | 46.5 | 182 | Yes | 2 | No | did not stain | 1 | selectivity index (SI = HeLa IC50/L3 IC50) ([3]; HeLa IC50 / L3 IC50): 0.31
CN(C)c1ccc2nc3ccc(=[N+](C)C)cc-3sc2c1 [Methylene Blue] | – | 4.3 ± 0.3 | significantly affected | Healthy | Affected | Death | Death | – | – | Yes | 1 | Yes | clearly stained | 1.1 | Staining (Time) ([7]; time at which staining of females was seen): 24 h; IC50 [9]: 6.02 µM
